Results on 20 compounds are retold here after patent US8802673B2, “Heterocyclic amine derivatives” (Hoffmann-La Roche Inc, priority 2011, dated 2014).

For one experiment, the target named is rat TAAR1 (Rattus norvegicus (Rat), UniProt Q923Y9). The experiment in a line: Radioligand binding assay on rat TAAR1. The following applies: rat TAAR1 (second value of the cell), HEK-293 membranes; read-out: Ki (μM) mouse/rat. The gist of the method: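 Membranes from HEK293 cells stably expressing rat TAAR1 were used, with radioligand Kd determined by saturation for each batch. Compounds (10 pM to 10 μM, in duplicate) were incubated for 1 h at 4 °C. Bound radioactivity was collected by filtration onto PEI-soaked GF/C filters and counted by scintillation.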
Sequence of rat TAAR1 (Q923Y9 whole entry): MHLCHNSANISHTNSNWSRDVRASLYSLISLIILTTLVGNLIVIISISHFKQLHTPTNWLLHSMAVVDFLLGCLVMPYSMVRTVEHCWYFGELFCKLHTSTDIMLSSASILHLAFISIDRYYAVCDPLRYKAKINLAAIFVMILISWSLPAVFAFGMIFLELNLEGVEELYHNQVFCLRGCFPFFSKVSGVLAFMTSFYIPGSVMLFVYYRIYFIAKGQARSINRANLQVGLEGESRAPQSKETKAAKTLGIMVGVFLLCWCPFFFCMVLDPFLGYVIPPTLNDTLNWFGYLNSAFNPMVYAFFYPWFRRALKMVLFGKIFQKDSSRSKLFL
Take `Cc1nc(Nc2ccc([C@H]3CNCCO3)cc2)ncc1C(C)C` [Example 73, (5-Isopropyl-4-methyl-pyrimidin-2-yl)-((S)-4-morpholin-2-yl-phenyl)-amine]: the Ki turned out to be 0.035 µM.

In the case of `c1cc([C@H]2CNCCO2)ccc1Nc1ncc2c(n1)CCCC2` [Example 74, ((S)-4-Morpholin-2-yl-phenyl)-(5,6,7,8-tetrahydro-quinazolin-2-yl)-amine], the Ki came to 0.0295 µM.

Take `O=[N+]([O-])c1cnc(Nc2ccc([C@H]3CNCCO3)cc2)nc1` [Example 75, ((S)-4-Morpholin-2-yl-phenyl)-(5-nitro-pyrimidin-2-yl)-amine]: the Ki is 0.228 µM.

As to `Fc1cc(Cl)cnc1Nc1ccc([C@H]2CNCCO2)cc1` [Example 77, (S)-5-Chloro-3-fluoro-N-(4-(morpholin-2-yl)phenyl)pyridin-2-amine], the Ki was determined as 0.13 µM.

With `CS(=O)(=O)c1cnc(Nc2ccc([C@H]3CNCCO3)cc2)nc1` [Example 78, (5-Methanesulfonyl-pyrimidin-2-yl)-((S)-4-morpholin-2-yl-phenyl)-amine], the Ki came out at 3.19 µM.

Consider `FC(F)(F)c1cc(Nc2ccc([C@H]3CNCCO3)cc2)ncc1Cl` [Example 82, (S)-5-Chloro-N-(4-(morpholin-2-yl)phenyl)-4-(trifluoromethyl)pyridin-2-amine], for which the Ki is 0.0101 µM.

`Cc1cc(Nc2ccc([C@H]3CNCCO3)cc2)ncc1Cl` [Example 83, (S)-5-Chloro-4-methyl-N-(4-(morpholin-2-yl)phenyl)pyridin-2-amine]: the Ki is 0.0222 µM.

Consider `c1cc([C@@H]2CNCCO2)ccc1Nc1ncc(C2CC2)cn1` [Example 86, (5-Cyclopropyl-pyrimidin-2-yl)-((R)-4-morpholin-2-yl-phenyl)-amine], for which the Ki is 0.009 µM.

As for `CCCc1cnc(Nc2ccc([C@@H]3CNCCO3)cc2)nc1` [Example 93, ((R)-4-Morpholin-2-yl-phenyl)-(5-propyl-pyrimidin-2-yl)-amine], the Ki came to 0.0222 µM.

Take `FC(F)(F)c1cnc(Nc2ccc([C@@H]3CNCCO3)cc2)nc1` [Example 95, ((R)-4-Morpholin-2-yl-phenyl)-(5-trifluoromethyl-pyrimidin-2-yl)-amine]: the Ki amounted to 0.0223 µM.

On to `Clc1cnc(Nc2ccc([C@@H]3CNCCO3)cc2)nc1` [Example 103, (R)-5-Chloro-N-(4-(morpholin-2-yl)phenyl)pyrimidin-2-amine], for which the Ki came out at 0.05 µM.

In the case of `Clc1cnc(Nc2ccc([C@H]3CNCCO3)cc2)nc1` [Example 104, (S)-5-Chloro-N-(4-(morpholin-2-yl)phenyl)pyrimidin-2-amine], the Ki was 0.105 µM.

Take `CCOc1cnc(Nc2ccc([C@@H]3CNCCO3)cc2)nc1` [Example 105, (5-Ethoxy-pyrimidin-2-yl)-((R)-4-morpholin-2-yl-phenyl)-amine]: the Ki came out at 0.127 µM.

`CCc1cnc(Nc2ccc([C@@H]3CNCCO3)cc2C)nc1` [Example 106, (5-Ethyl-pyrimidin-2-yl)-((R)-2-methyl-4-morpholin-2-yl-phenyl)-amine]: the Ki was 0.0814 µM.

In the case of `CCc1cnc(Nc2ccc([C@H]3CNCCO3)cc2C)nc1` [Example 107, (5-Ethyl-pyrimidin-2-yl)-((S)-2-methyl-4-morpholin-2-yl-phenyl)-amine], the Ki is 0.0877 µM.

For the compound `CCc1cnc(Nc2ccc([C@@H]3CCCNC3)cc2)nc1` [Example 112, (5-Ethyl-pyrimidin-2-yl)-((S)-4-piperidin-3-yl-phenyl)-amine], the Ki came out at 0.197 µM.

Turning to `c1ccc(-c2cc(Nc3ccc([C@H]4CNCCO4)cc3)n[nH]2)cc1` [Example 113, (S)—N-(4-(Morpholin-2-yl)phenyl)-5-phenyl-1H-pyrazol-3-amine], the Ki worked out at 0.0877 µM.

For the compound `CCOc1cnc(Nc2ccc([C@@H]3CCCNC3)cc2)nc1` [Example 114, (5-Ethoxy-pyrimidin-2-yl)-((S)-4-piperidin-3-yl-phenyl)-amine], the Ki was found to be 0.996 µM.

For the compound `c1ccc(-c2nnc(Nc3ccc([C@H]4CNCCO4)cc3)o2)cc1` [Example 115, (S)—N-(4-(Morpholin-2-yl)phenyl)-5-phenyl-1,3,4-oxadiazol-2-amine], the Ki was 0.235 µM.

On to `CCc1cnc(Nc2ccc([C@@H]3CNCCO3)cc2F)nc1` [Example 116, (5-Ethyl-pyrimidin-2-yl)-((R)-2-fluoro-4-morpholin-2-yl-phenyl)-amine], for which the Ki stood at 0.007 µM.

The target of another experiment is mouse TAAR1 (Mus musculus (Mouse), UniProt Q923Y8). The experiment in a line: Radioligand binding assay on mouse TAAR1. The following applies: mouse TAAR1 (first value of the cell), HEK-293 membranes; read-out: Ki (μM) mouse/rat. The gist of the method: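 Membranes from HEK293 cells stably expressing mouse TAAR1, Kd of radioligand determined per batch by saturation. Compounds tested 10 pM to 10 μM in duplicate, incubated 1 h at 4 °C, then filtration over PEI-soaked GF/C filters and scintillation counting.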
Sequence of mouse TAAR1 (Q923Y8 whole entry): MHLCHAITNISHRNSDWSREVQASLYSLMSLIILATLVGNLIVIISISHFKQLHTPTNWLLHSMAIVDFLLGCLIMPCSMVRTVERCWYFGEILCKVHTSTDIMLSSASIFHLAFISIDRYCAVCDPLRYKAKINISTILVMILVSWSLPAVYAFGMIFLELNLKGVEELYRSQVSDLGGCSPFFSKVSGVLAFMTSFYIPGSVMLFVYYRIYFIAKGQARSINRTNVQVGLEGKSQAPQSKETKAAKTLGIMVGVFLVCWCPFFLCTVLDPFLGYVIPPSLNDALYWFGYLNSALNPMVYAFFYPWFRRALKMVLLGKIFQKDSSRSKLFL
Turning to `Cc1nc(Nc2ccc([C@H]3CNCCO3)cc2)ncc1C(C)C` [Example 73, (5-Isopropyl-4-methyl-pyrimidin-2-yl)-((S)-4-morpholin-2-yl-phenyl)-amine], the Ki worked out at 0.0096 µM.

Regarding `c1cc([C@H]2CNCCO2)ccc1Nc1ncc2c(n1)CCCC2` [Example 74, ((S)-4-Morpholin-2-yl-phenyl)-(5,6,7,8-tetrahydro-quinazolin-2-yl)-amine], the Ki came to 0.0059 µM.

For `O=[N+]([O-])c1cnc(Nc2ccc([C@H]3CNCCO3)cc2)nc1` [Example 75, ((S)-4-Morpholin-2-yl-phenyl)-(5-nitro-pyrimidin-2-yl)-amine], the Ki was 0.0141 µM.

Consider `Fc1cc(Cl)cnc1Nc1ccc([C@H]2CNCCO2)cc1` [Example 77, (S)-5-Chloro-3-fluoro-N-(4-(morpholin-2-yl)phenyl)pyridin-2-amine], for which the Ki was 0.0053 µM.

`CS(=O)(=O)c1cnc(Nc2ccc([C@H]3CNCCO3)cc2)nc1` [Example 78, (5-Methanesulfonyl-pyrimidin-2-yl)-((S)-4-morpholin-2-yl-phenyl)-amine]: the Ki came to 0.11 µM.

Regarding `FC(F)(F)c1cc(Nc2ccc([C@H]3CNCCO3)cc2)ncc1Cl` [Example 82, (S)-5-Chloro-N-(4-(morpholin-2-yl)phenyl)-4-(trifluoromethyl)pyridin-2-amine], the Ki was found to be 0.0008 µM.

Turning to `Cc1cc(Nc2ccc([C@H]3CNCCO3)cc2)ncc1Cl` [Example 83, (S)-5-Chloro-4-methyl-N-(4-(morpholin-2-yl)phenyl)pyridin-2-amine], the Ki was 0.0006 µM.

For `c1cc([C@@H]2CNCCO2)ccc1Nc1ncc(C2CC2)cn1` [Example 86, (5-Cyclopropyl-pyrimidin-2-yl)-((R)-4-morpholin-2-yl-phenyl)-amine], the Ki worked out at 0.0024 µM.

As for `CCCc1cnc(Nc2ccc([C@@H]3CNCCO3)cc2)nc1` [Example 93, ((R)-4-Morpholin-2-yl-phenyl)-(5-propyl-pyrimidin-2-yl)-amine], the Ki turned out to be 0.005 µM.

Turning to `FC(F)(F)c1cnc(Nc2ccc([C@@H]3CNCCO3)cc2)nc1` [Example 95, ((R)-4-Morpholin-2-yl-phenyl)-(5-trifluoromethyl-pyrimidin-2-yl)-amine], the Ki came to 0.0057 µM.

Regarding `Clc1cnc(Nc2ccc([C@@H]3CNCCO3)cc2)nc1` [Example 103, (R)-5-Chloro-N-(4-(morpholin-2-yl)phenyl)pyrimidin-2-amine], the Ki came out at 0.0044 µM.

For the compound `Clc1cnc(Nc2ccc([C@H]3CNCCO3)cc2)nc1` [Example 104, (S)-5-Chloro-N-(4-(morpholin-2-yl)phenyl)pyrimidin-2-amine], the Ki stood at 0.0041 µM.

As to `CCOc1cnc(Nc2ccc([C@@H]3CNCCO3)cc2)nc1` [Example 105, (5-Ethoxy-pyrimidin-2-yl)-((R)-4-morpholin-2-yl-phenyl)-amine], the Ki was 0.0116 µM.

As for `CCc1cnc(Nc2ccc([C@@H]3CNCCO3)cc2C)nc1` [Example 106, (5-Ethyl-pyrimidin-2-yl)-((R)-2-methyl-4-morpholin-2-yl-phenyl)-amine], the Ki was found to be 0.0086 µM.

Take `CCc1cnc(Nc2ccc([C@H]3CNCCO3)cc2C)nc1` [Example 107, (5-Ethyl-pyrimidin-2-yl)-((S)-2-methyl-4-morpholin-2-yl-phenyl)-amine]: the Ki was determined as 0.005 µM.

Take `CCc1cnc(Nc2ccc([C@@H]3CCCNC3)cc2)nc1` [Example 112, (5-Ethyl-pyrimidin-2-yl)-((S)-4-piperidin-3-yl-phenyl)-amine]: the Ki was found to be 0.0038 µM.

With `c1ccc(-c2cc(Nc3ccc([C@H]4CNCCO4)cc3)n[nH]2)cc1` [Example 113, (S)—N-(4-(Morpholin-2-yl)phenyl)-5-phenyl-1H-pyrazol-3-amine], the Ki amounted to 0.0011 µM.

`CCOc1cnc(Nc2ccc([C@@H]3CCCNC3)cc2)nc1` [Example 114, (5-Ethoxy-pyrimidin-2-yl)-((S)-4-piperidin-3-yl-phenyl)-amine]: the Ki was determined as 0.0212 µM.

In the case of `c1ccc(-c2nnc(Nc3ccc([C@H]4CNCCO4)cc3)o2)cc1` [Example 115, (S)—N-(4-(Morpholin-2-yl)phenyl)-5-phenyl-1,3,4-oxadiazol-2-amine], the Ki amounted to 0.0079 µM.

`CCc1cnc(Nc2ccc([C@@H]3CNCCO3)cc2F)nc1` [Example 116, (5-Ethyl-pyrimidin-2-yl)-((R)-2-fluoro-4-morpholin-2-yl-phenyl)-amine]: the Ki is 0.0039 µM.
